# Measurements as given in publication PMC3923778 (PLoS Currents, 2014).
# “Also recorded” adds a separate entry of the source. Like-named read-outs stand apart in the source and are kept apart here.
# Assays:
# [1] = Pharmacokinetic analysis in mice; format: in vivo, mouse; conditions: for half-life: read-out: Half-life (t1/2) (converted); for Tmax: read-out: Observed Tmax
# Protocol: All PK studies were conducted at Charles River Laboratories (CRL), MA, USA. CRL is fully accredited by the Association for Assessment and Accreditation of Laboratory Animal Care International (AAALAC), and is registered with the United States Department of Agriculture (USDA). All procedures involving animals were conducted humanely and were performed by trained and experienced personnel. The individual study protocols were reviewed and approved by the IACUC of CRL. A total of 48 male C57BL/6NCRL mice were used. Animals were acclimated to the study room environment for 5 days prior to dose administration. Mice were individually housed in micro isolator cages, and were kept on a 12/12 hour light/dark cycle except when interrupted for study procedures. Mice were fed LabDiet Certified Rodent Diet 5002 food ad libitum, except during fasting prior to dose administration, and had access to water ad libitum. […] For the iv doses, the compound was formulated at 1 mg/mL as a dose solution in 2% […] (NMP), 14% Propylene Glycol (PG), 14% Solutol HS–15, 70% 50mM Citrate, pH 4.5 , by volume. For the po dose, the compound was formulated at 1 mg/mL as a solution in 30% PG, 20% Solutol HS–15, 50% 50mM Citrate, pH 4.5, by volume. Aliquots (25 μL) of samples, plasma, and tissue blanks (containing internal standard only), plasma and tissue double blanks (without internal standard), control blanks (solvent only), diluted dose (dilute in plasma from the study species prior to extraction) and matrix calibration standards were dispensed into 96-well plates. Extracting solution with internal standard (100 μL) was added to all samples except matrix double blanks and solvent blanks. Extracting solution without internal standard (100 μL) was added to matrix double blanks. Samples were vortexed and centrifuged for 5 minutes, and the supernatants were transferred to a new plate. An aliquot (50 μL) of Milli-Q water was added to the samples, which were covered and vortexed for 5 minutes. […] Reserpine was used as an internal standard in the LC-MS/MS assay. Mice were divided into four groups of 3 animals each. Two blood samples were collected from each mouse following dosing; the second collection was a terminal sample and brains were also collected at that time as follows: Group 1 at 0.083 and 0.5 hr, Group 2 at 0.25 and 2 hr, Group 3 at 1 and 8 hr and Group 4 at 4 and 24 hr., and brain tissue time points at 0.5, 2, 8 and 24 hr. Non-compartmental pharmacokinetic analyses of the plasma concentration time course were performed using WinNonlin, version 5.2 (Pharsight Corp., Mountain View, California).
# [2] = tested on: cGMP levels in the striatum; assay: Microdialysis PD: cGMP in striatal extracellular dialysate; format: in vivo, mouse; conditions: male R6/2
# Protocol: Microdialysis PK/PD studies were conducted at Brains Online, Inc. (San Francisco, CA, USA)
# Male R6/2 (CBA/C57Bl/6 strain, CAG 120) mice aged 7-8 weeks (20 - 30 g; The Jackson Laboratory, USA) were used for the experiments. The animals were group housed in plastic cages (3-4 animals / cage) and had access to food and water ad libitum. Experiments were conducted in accordance with the declarations of Helsinki and were approved by the Institutional Animal Care and Use Committee of the University of California, San-Francisco.
# Mice were anesthetized using isoflurane (2%, 800 mL/min O2). Bupivacain/epinephrine was used for local anesthesia. Carprophen was used peri-/post-operative as analgesia. The animals were placed in a stereotaxic frame (Kopf instruments, USA), and microdialysis probes were inserted into the striatum. Coordinates for the tips of the probes were for striatum: […] (AP) = +0.8 mm to bregma, lateral (L) = -1.7 mm to midline and ventral (V) = -4.0 mm to dura, the toothbar was set at 0.0 mm (Paxinos and Franklin, 2001). […] After surgery animals were kept individually in cages and provided food and water ad libitum. Animals were fasted the night before the experiment.
# Experiments were performed one day after surgery. On the day of the experiment, the probes of the animals were connected with flexible PEEK tubing to a microperfusion pump (Syringe pump UV 8301501, Univentor, Malta). MQ probes were perfused with aCSF containing 0.2% albumin at a flow rate of 0.10 µL/min. As the carrier flow, ultrapurified H2O was used at a flow rate of 0.70 µL/min. I-shaped probes were perfused with aCSF at a flow rate of 1.5 µL/min. Microdialysis samples were collected for 30-minute periods by an automated fraction collector (CMA 142, Sweden) into mini-vials. Samples originating from I-shaped probes were collected into mini-vials already containing 15 µL of 0.02 M formic acid. 10 µL of 0.02 M formic acid was added in the samples originating from MQ probes. […] Following compound administration, microdialysate samples continued to be collected for 240 min at 30 minute intervals. All dialysis samples were stored at -80 °C.
# Concentrations of cGMP were determined by HPLC with tandem mass spectrometry (MS/MS) detection. Standard samples were prepared in artificial dialysate matrix, consisting of 3 parts (v/v) aCSF mixed with 1 part 0.02M formic acid in ultrapurified H2O. Final concentrations of standard samples were 0.02, 0.05, 0.1, 0.2, 0.5, 1, 2, 5 and 10 nM. Quality control (QC) samples were prepared independently. Final concentrations were 0.3 (QClow), 0.75 (QCmid) and 7.5 (QChigh) nM. […]
# Treatment effects were evaluated among different drug concentrations and also compared to baseline, using two-way ANOVA for repeated measurements followed by Student-Newman-Keuls post-hoc test. […]
# [3] = male, C57BL/6NCRL, mouse, 5 mg/kg, Brain, IV 5.0 (mg eq./kg)
# [4] = male, C57BL/6NCRL, mouse, 5 mg/kg, Plasma, IV 5.0 (mg eq./kg)
compound,measurement,setting,value
"CN1C(=O)c2nc(Cc3ccc(C(F)(F)F)cc3)[nH]c2N2C1=N[C@H]1CCC[C@H]12 [SCH-51866, (+)-cis-5,6a,7,8,9,9a-hexahydro-2-[4-[trifluro-methyl]phenylmethyl]-5-methyl-cylopent[4,5]imidazo [2,1-b]purin-4(3H)one]",brain concentration at Tmax exceeds the biochemical IC50 for PDE1,[1]; after oral administration,~ 7 fold
same,time through which concentrations in brain were measurable for all animals,[1]; following dosing,8 h
same,AUC(0-inf),[1]; [3],8.23 µM·h
same,AUC(0-t),[1]; [3],8.18 µM·h
same,half-life,[1]; [3],1.08 h
same,Cmax,"[1]; male, C57BL/6NCRL, mouse, 5 mg/kg, Brain, IV 5.0 (mg eq./kg), read-out: Observed Cmax",3560 nM
same,AUC(0-inf),[1]; [4],7.35 µM·h
same,AUC(0-t),[1]; [4],7.31 µM·h
same,half-life,[1]; [4],3.87 h
same,MRT,"[1]; male, C57BL/6NCRL, mouse, 5 mg/kg, Plasma, IV 5.0 (mg eq./kg), read-out: Mean Residence Time (MRT)",2.57 h
same,clearance,"[1]; male, C57BL/6NCRL, mouse, 5 mg/kg, Plasma, IV 5.0 (mg eq./kg), read-out: Plasma Clearance (CLp) (converted)",29.2 mL/min/kg
same,Vd,"[1]; male, C57BL/6NCRL, mouse, 5 mg/kg, Plasma, IV 5.0 (mg eq./kg), read-out: Volume of Distribution at Steady State (Vdss)",4.48 L/kg
same,AUC(0-t),"[1]; male, C57BL/6NCRL, mouse, 10 mg/kg, Brain, PO 10.0 (mg eq./kg)",2.2 µM·h
same,Cmax,"[1]; male, C57BL/6NCRL, mouse, 10 mg/kg, Brain, PO 10.0 (mg eq./kg), read-out: Observed Cmax",475 nM
same,Tmax,"[1]; male, C57BL/6NCRL, mouse, brain, iv, 5 mg/kg, Brain, IV 5.0 (mg eq./kg)",0.5 h
same,Kp,"[1]; male, C57BL/6NCRL, mouse, brain, oral, 10 mg eq./kg, mice, read-out: Brain-to-plasma concentration ratios",0.1 to 0.4
same,Tmax,"[1]; male, C57BL/6NCRL, mouse, brain, po, 10 mg/kg, Brain, PO 10.0 (mg eq./kg)",2 h
same,Cmax,"[1]; male, C57BL/6NCRL, mouse, plasma, 10 mg/kg po in mice, read-out: plasma Cmax exposure",2400 nM
same,Elevation in cGMP in extracellular dialysate over baseline,[2]; 3 mg/kg po acute,not
same,Elevation in cGMP in extracellular dialysate over baseline,[2]; 10 mg/kg po acute,significantly elevated cGMP levels; also recorded: significant over baseline
same,Elevation in cGMP in extracellular dialysate over baseline,[2]; 30 mg/kg po acute,significantly elevated cGMP levels; also recorded: significant over baseline
same,accumulation of cGMP versus dose,[2]; acute po,increased dose-proportionally
